Key:
[1] = tested on: normal NK cells expanded with K562-aAPC; assay: percent inhibition of viability; higher = more inhibition; settings: 72 h, IL-2 2.5 ng/mL
Protocol: (§1)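 Drug sensitivity and resistance testing on K562-aAPC-expanded normal NK cells: 5 concentrations (10-fold steps over a 10,000-fold range), 72 h at 37 °C, viability by CellTiter-Glo normalised to DMSO and benzethonium chloride controls; DSS from the fitted curve.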

DERL-7 (IL-2 2.5 ng/mL) [2] = assay: as above; settings: 72 h
IMC-1 (IL-2 20 ng/mL) [3] = assay: as above; settings: 72 h
KAI3 (IL-2 2.5 ng/mL) [4] = assay: as above; settings: 72 h
KHYG-1 (IL-2 2.5 ng/mL) [5] = assay: as above; settings: 72 h
NK-92 (IL-2 2.5 ng/mL) [6] = assay: as above; settings: 72 h
NK-YS (IL-2 2.5 ng/mL) [7] = assay: as above; settings: 72 h
NKL (IL-2 2.5 ng/mL) [8] = assay: as above; settings: 72 h
SNK-6 (IL-2 2.5 ng/mL) [9] = assay: as above; settings: 72 h
YT (IL-2 2.5 ng/mL) [10] = assay: as above; settings: 72 h
[11] = tested on: normal primary NK cells, pool 1 (3 donors) (IL-2 2.5 ng/mL); assay: as above; settings: 72 h
[12] = tested on: normal primary NK cells, pool 1 (3 donors), resting (IL-2 0 ng/mL); assay: as above; settings: 72 h
[13] = tested on: normal primary NK cells, pool 2 (3 donors) (IL-2 2.5 ng/mL); assay: as above; settings: 72 h
[14] = tested on: normal primary NK cells, pool 3 (3 donors) (IL-2 2.5 ng/mL); assay: as above; settings: 72 h
[15] = tested on: normal NK cells expanded with K562-aAPC; assay: drug sensitivity score (DSS) (DSS units); higher = more sensitive; extreme values may be limits of the assay; settings: 72 h; IL-2 2.5 ng/mL
Protocol: as §1

DERL-7 (IL-2 2.5 ng/mL) [16] = assay: as above; settings: 72 h
IMC-1 (IL-2 20 ng/mL) [17] = assay: as above; settings: 72 h
KAI3 (IL-2 2.5 ng/mL) [18] = assay: as above; settings: 72 h
KHYG-1 (IL-2 2.5 ng/mL) [19] = assay: as above; settings: 72 h
NK-92 (IL-2 2.5 ng/mL) [20] = assay: as above; settings: 72 h
NK-YS (IL-2 2.5 ng/mL) [21] = assay: as above; settings: 72 h
NKL (IL-2 2.5 ng/mL) [22] = assay: as above; settings: 72 h
SNK-6 (IL-2 2.5 ng/mL) [23] = assay: as above; settings: 72 h
YT (IL-2 2.5 ng/mL) [24] = assay: as above; settings: 72 h
[25] = tested on: normal primary NK cells, pool 1 (3 donors) (IL-2 2.5 ng/mL); assay: as above; settings: 72 h
[26] = tested on: normal primary NK cells, pool 1 (3 donors), resting (IL-2 0 ng/mL); assay: as above; settings: 72 h
[27] = tested on: normal primary NK cells, pool 2 (3 donors) (IL-2 2.5 ng/mL); assay: as above; settings: 72 h
[28] = tested on: normal primary NK cells, pool 3 (3 donors) (IL-2 2.5 ng/mL); assay: as above; settings: 72 h

COc1cc([C@@H]2c3cc4c(cc3[C@@H](O[C@@H]3O[C@@H]5CO[C@@H](C)O[C@H]5[C@H](O)[C@H]3O)[C@H]3COC(=O)[C@H]23)OCO4)cc(OC)c1O [Etoposide] (max concentration tested 10000 nM)
percent inhibition of viability [%]
Settings | 1 nM | 10 nM | 100 nM | 1000 nM | 10000 nM
DERL-7 (IL-2 2.5 ng/mL) [2] | -3.7 | 3.15 | 32.8 | 97 | 82.8
IMC-1 (IL-2 20 ng/mL) [3] | -6.15 | 1.75 | 34.8 | 97.9 | 99.5
KAI3 (IL-2 2.5 ng/mL) [4] | 5.94 | 13.2 | 41.3 | 76.4 | 78
KHYG-1 (IL-2 2.5 ng/mL) [5] | -3.98 | -9.64 | 3.44 | 87.1 | 101
NK-92 (IL-2 2.5 ng/mL) [6] | -7.31 | -6.78 | 5.02 | 67.3 | 101
NK-YS (IL-2 2.5 ng/mL) [7] | 3.6 | 4.01 | 29.1 | 77.3 | 83.9
NKL (IL-2 2.5 ng/mL) [8] | -3.26 | 4.8 | 80.7 | 94.3 | 101
SNK-6 (IL-2 2.5 ng/mL) [9] | -11.1 | 0.92 | -0.88 | 74.3 | 96.2
YT (IL-2 2.5 ng/mL) [10] | -3.45 | -8.19 | -5.67 | 44.7 | 98.2
[1] | -5.25 | -8.84 | -1.72 | 49.7 | 65.7
[11] | -1.51 | 1.58 | 11.1 | 14.3 | 79.7
[12] | 0.93 | 10 | 22.8 | 40 | 90.5
[13] | -2.19 | -0.27 | 0.34 | 8.73 | 53.7
[14] | 0.28 | -3.78 | 10.1 | 11.7 | 48.3

Settings | drug sensitivity score
DERL-7 (IL-2 2.5 ng/mL) [16] | 21.9
IMC-1 (IL-2 20 ng/mL) [17] | 22.2
KAI3 (IL-2 2.5 ng/mL) [18] | 19.3
KHYG-1 (IL-2 2.5 ng/mL) [19] | 16.2
NK-92 (IL-2 2.5 ng/mL) [20] | 13.7
NK-YS (IL-2 2.5 ng/mL) [21] | 17.7
NKL (IL-2 2.5 ng/mL) [22] | 28
SNK-6 (IL-2 2.5 ng/mL) [23] | 13.8
YT (IL-2 2.5 ng/mL) [24] | 11.1
[15] | 9.42
[25] | 6.78
[26] | 11.3
[27] | 4.34
[28] | 4.07

O=C(NC[C@H](O)CO)c1ccncc1Nc1ccc(I)cc1F [Pimasertib] (max concentration tested 10000 nM)
percent inhibition of viability [%]
Settings | 1 nM | 10 nM | 100 nM | 1000 nM | 10000 nM
DERL-7 (IL-2 2.5 ng/mL) [2] | 0.5 | 14.9 | 29.4 | 37.8 | 49.7
IMC-1 (IL-2 20 ng/mL) [3] | -6.58 | -3.26 | -9.96 | -4.58 | 5.6
KAI3 (IL-2 2.5 ng/mL) [4] | -9.91 | 7.15 | 14.8 | 26.4 | 27.1
KHYG-1 (IL-2 2.5 ng/mL) [5] | -2.11 | 9.27 | 31.9 | 59.1 | 61.3
NK-92 (IL-2 2.5 ng/mL) [6] | 6.11 | -18.6 | -12.1 | -18.6 | -16.4
NK-YS (IL-2 2.5 ng/mL) [7] | -5.36 | -3.17 | -0.42 | 15.1 | 19.9
NKL (IL-2 2.5 ng/mL) [8] | -5.35 | 10.9 | 45.4 | 63.2 | 66.3
SNK-6 (IL-2 2.5 ng/mL) [9] | -12.2 | -4.53 | -21 | -22.5 | -8.46
YT (IL-2 2.5 ng/mL) [10] | 0.32 | 1.92 | -0.1 | 10.8 | 10.6
[1] | 0.25 | -8.62 | 0.85 | 3.75 | 18
[11] | -8.76 | 5.99 | 2.83 | 15.8 | 22.1
[12] | 10.1 | -6.83 | -15.1 | 8.84 | 24.8
[13] | -12.9 | 1.34 | 0.74 | 1.01 | 13.2
[14] | -8.93 | -10.8 | -10.3 | -6.25 | 5.59

Settings | drug sensitivity score
DERL-7 (IL-2 2.5 ng/mL) [16] | 11.6
IMC-1 (IL-2 20 ng/mL) [17] | 0
KAI3 (IL-2 2.5 ng/mL) [18] | 5.63
KHYG-1 (IL-2 2.5 ng/mL) [19] | 14.8
NK-92 (IL-2 2.5 ng/mL) [20] | 0
NK-YS (IL-2 2.5 ng/mL) [21] | 2.03
NKL (IL-2 2.5 ng/mL) [22] | 18.1
SNK-6 (IL-2 2.5 ng/mL) [23] | 0
YT (IL-2 2.5 ng/mL) [24] | 0.17
[15] | 0.89
[25] | 2.21
[26] | 2.06
[27] | 0.17
[28] | 0
